Results from ChEMBL document CHEMBL5291721, “A preclinical secondary pharmacology resource illuminates target-adverse drug reaction associations of marketed drugs” (Nat Commun, 2023).

Tests used:
[1] = biological target: Sodium-dependent serotonin transporter (Homo sapiens, UniProt P31645)
[2] = biological target: Voltage-gated inwardly rectifying potassium channel KCNH2 (Homo sapiens, UniProt Q12809); format: functional
Histamine H1 receptor = Histamine H1 receptor (Homo sapiens, UniProt P35367)
Motilin receptor = Motilin receptor (Homo sapiens, UniProt O43193)
Histamine H3 receptor = Histamine H3 receptor (Homo sapiens, UniProt Q9Y5N1)
[3] = biological target: T1, Muscarinic acetylcholine receptor M1 (Homo sapiens, UniProt P11229); format: functional
T1 sequence (P11229 whole entry): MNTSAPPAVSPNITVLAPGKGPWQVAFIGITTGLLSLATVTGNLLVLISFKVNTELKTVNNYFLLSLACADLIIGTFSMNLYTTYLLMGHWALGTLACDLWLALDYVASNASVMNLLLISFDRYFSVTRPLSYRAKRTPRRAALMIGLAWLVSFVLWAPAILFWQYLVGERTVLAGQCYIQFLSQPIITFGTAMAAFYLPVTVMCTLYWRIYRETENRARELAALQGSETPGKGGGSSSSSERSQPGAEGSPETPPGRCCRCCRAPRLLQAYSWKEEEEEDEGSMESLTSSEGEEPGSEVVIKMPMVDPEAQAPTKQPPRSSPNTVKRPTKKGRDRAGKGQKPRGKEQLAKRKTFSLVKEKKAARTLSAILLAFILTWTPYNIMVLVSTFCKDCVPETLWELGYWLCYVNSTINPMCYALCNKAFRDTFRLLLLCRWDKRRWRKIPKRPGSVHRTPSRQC

[4] = biological target: T2, Prostaglandin G/H synthase 1 (Rattus norvegicus, UniProt Q63921); format: functional
T2 sequence (Q63921 whole entry): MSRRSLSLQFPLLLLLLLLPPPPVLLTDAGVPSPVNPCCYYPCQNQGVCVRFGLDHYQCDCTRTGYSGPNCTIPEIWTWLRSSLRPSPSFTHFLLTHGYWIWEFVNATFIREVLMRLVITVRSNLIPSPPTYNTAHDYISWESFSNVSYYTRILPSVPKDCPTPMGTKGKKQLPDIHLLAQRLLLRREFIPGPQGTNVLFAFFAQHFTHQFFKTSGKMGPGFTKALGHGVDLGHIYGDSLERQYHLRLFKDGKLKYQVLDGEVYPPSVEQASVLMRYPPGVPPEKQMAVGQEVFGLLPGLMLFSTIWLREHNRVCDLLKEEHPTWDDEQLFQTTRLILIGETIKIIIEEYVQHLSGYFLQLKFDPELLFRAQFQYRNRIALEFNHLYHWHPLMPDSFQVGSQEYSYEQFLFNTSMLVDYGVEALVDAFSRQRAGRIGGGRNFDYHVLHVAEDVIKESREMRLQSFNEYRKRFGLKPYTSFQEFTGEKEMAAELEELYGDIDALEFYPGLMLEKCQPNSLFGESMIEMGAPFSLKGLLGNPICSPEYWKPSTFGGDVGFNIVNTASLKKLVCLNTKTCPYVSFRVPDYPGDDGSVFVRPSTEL

[5] = biological target: T3, Muscarinic acetylcholine receptor M2 (Homo sapiens, UniProt P08172); format: functional, cell-based
T3 sequence (P08172 whole entry): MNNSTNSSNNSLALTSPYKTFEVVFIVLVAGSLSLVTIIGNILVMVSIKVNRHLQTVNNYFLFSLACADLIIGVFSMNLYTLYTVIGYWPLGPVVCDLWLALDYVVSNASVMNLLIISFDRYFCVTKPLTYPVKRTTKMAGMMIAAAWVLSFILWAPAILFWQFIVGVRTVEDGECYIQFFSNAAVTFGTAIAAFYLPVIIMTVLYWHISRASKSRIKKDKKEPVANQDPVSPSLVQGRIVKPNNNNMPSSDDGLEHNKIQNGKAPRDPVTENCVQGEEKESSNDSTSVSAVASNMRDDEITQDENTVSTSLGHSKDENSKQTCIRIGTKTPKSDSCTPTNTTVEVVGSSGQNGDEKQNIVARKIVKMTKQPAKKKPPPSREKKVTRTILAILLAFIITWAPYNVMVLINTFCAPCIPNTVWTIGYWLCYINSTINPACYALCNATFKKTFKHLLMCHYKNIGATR

[6] = biological target: Sodium-dependent dopamine transporter (Homo sapiens, UniProt Q01959)
[7] = biological target: T4, Alpha-1A adrenergic receptor (Homo sapiens, UniProt P35348); format: functional, cell-based
T4 sequence (P35348 whole entry): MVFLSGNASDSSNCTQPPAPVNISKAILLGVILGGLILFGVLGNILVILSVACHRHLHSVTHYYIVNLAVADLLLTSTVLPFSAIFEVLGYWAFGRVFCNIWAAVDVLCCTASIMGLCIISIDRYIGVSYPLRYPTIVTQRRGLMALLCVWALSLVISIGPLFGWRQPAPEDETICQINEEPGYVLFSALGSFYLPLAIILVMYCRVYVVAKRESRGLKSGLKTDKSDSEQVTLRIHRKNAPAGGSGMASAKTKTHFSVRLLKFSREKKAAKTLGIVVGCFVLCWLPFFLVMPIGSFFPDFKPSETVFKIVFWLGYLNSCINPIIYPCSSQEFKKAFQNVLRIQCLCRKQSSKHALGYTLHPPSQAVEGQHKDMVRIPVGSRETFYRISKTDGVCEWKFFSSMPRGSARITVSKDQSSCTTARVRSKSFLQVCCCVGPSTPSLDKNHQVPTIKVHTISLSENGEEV

[8] = biological target: T5, Equilibrative nucleoside transporter 1 (Homo sapiens, UniProt Q99808)
T5 sequence (Q99808 whole entry): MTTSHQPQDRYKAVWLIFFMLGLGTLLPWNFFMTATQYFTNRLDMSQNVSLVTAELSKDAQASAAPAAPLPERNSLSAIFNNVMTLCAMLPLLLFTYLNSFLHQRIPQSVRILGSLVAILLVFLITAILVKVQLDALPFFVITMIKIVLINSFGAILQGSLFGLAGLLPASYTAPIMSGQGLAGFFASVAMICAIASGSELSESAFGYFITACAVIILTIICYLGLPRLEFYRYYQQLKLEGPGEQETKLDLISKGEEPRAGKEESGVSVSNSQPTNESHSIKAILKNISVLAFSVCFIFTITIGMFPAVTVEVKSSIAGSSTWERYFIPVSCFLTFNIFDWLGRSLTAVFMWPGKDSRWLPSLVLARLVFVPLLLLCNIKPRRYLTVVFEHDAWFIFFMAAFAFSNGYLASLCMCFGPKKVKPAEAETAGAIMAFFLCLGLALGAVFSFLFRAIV

[9] = biological target: Voltage-dependent L-type calcium channel subunit alpha-1C (Rattus norvegicus, UniProt P22002); format: functional
Note: assay procedure not described here.

Chain of Voltage-gated inwardly rectifying potassium channel KCNH2 (Q12809 whole entry): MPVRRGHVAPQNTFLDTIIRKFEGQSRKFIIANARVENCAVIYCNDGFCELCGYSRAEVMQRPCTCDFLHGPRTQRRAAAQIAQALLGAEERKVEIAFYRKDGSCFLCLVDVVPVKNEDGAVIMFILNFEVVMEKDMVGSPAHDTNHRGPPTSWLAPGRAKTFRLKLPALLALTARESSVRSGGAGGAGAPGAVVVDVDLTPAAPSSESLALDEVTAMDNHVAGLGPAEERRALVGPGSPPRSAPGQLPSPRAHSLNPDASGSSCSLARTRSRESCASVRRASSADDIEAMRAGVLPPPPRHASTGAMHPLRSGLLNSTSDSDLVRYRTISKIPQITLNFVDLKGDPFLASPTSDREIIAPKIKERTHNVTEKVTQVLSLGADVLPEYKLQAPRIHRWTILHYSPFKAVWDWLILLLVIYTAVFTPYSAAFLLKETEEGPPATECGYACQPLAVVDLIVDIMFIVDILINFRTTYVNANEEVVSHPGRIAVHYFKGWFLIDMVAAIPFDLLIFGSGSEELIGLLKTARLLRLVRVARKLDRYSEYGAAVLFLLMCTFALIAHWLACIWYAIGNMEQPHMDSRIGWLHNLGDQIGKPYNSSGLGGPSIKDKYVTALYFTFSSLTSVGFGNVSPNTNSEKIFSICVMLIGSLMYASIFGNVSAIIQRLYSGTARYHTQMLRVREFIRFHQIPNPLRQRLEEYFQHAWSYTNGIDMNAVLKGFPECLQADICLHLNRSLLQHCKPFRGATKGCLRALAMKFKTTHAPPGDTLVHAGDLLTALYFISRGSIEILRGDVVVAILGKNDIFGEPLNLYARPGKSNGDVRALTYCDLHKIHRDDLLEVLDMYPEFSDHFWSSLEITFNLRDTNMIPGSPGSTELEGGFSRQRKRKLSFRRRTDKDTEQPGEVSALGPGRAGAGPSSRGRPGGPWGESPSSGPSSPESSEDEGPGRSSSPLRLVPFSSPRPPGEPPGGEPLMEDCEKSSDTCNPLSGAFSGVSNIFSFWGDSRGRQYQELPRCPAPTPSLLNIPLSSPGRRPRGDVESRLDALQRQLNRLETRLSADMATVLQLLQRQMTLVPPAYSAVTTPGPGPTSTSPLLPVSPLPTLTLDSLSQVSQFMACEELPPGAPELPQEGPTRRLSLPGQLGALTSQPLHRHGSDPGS
Chain of Histamine H1 receptor (P35367 whole entry): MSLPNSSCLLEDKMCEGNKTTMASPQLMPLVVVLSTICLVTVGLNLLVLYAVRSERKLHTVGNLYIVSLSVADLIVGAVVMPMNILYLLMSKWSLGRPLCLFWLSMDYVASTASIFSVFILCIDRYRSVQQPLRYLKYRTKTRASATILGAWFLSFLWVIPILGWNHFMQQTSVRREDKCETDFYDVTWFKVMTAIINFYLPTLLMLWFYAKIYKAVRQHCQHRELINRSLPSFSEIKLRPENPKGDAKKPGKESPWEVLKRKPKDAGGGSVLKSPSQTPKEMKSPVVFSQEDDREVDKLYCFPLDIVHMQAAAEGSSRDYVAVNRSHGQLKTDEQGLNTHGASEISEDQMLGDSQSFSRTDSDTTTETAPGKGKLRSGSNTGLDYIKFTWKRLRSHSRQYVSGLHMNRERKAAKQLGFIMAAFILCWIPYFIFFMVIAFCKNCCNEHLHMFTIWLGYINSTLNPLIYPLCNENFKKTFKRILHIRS
Chain of Motilin receptor (O43193 whole entry): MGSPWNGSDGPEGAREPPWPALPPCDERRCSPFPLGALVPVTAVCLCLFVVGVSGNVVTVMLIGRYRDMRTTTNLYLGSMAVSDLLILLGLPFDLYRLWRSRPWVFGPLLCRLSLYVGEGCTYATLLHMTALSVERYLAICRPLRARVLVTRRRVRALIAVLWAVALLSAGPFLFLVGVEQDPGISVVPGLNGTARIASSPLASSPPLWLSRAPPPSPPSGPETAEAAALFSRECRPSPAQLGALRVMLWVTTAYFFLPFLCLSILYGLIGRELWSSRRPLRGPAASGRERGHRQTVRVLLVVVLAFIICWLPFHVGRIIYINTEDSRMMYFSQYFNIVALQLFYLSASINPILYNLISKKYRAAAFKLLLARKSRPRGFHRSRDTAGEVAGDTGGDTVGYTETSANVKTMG
Chain of Voltage-dependent L-type calcium channel subunit alpha-1C (P22002 whole entry): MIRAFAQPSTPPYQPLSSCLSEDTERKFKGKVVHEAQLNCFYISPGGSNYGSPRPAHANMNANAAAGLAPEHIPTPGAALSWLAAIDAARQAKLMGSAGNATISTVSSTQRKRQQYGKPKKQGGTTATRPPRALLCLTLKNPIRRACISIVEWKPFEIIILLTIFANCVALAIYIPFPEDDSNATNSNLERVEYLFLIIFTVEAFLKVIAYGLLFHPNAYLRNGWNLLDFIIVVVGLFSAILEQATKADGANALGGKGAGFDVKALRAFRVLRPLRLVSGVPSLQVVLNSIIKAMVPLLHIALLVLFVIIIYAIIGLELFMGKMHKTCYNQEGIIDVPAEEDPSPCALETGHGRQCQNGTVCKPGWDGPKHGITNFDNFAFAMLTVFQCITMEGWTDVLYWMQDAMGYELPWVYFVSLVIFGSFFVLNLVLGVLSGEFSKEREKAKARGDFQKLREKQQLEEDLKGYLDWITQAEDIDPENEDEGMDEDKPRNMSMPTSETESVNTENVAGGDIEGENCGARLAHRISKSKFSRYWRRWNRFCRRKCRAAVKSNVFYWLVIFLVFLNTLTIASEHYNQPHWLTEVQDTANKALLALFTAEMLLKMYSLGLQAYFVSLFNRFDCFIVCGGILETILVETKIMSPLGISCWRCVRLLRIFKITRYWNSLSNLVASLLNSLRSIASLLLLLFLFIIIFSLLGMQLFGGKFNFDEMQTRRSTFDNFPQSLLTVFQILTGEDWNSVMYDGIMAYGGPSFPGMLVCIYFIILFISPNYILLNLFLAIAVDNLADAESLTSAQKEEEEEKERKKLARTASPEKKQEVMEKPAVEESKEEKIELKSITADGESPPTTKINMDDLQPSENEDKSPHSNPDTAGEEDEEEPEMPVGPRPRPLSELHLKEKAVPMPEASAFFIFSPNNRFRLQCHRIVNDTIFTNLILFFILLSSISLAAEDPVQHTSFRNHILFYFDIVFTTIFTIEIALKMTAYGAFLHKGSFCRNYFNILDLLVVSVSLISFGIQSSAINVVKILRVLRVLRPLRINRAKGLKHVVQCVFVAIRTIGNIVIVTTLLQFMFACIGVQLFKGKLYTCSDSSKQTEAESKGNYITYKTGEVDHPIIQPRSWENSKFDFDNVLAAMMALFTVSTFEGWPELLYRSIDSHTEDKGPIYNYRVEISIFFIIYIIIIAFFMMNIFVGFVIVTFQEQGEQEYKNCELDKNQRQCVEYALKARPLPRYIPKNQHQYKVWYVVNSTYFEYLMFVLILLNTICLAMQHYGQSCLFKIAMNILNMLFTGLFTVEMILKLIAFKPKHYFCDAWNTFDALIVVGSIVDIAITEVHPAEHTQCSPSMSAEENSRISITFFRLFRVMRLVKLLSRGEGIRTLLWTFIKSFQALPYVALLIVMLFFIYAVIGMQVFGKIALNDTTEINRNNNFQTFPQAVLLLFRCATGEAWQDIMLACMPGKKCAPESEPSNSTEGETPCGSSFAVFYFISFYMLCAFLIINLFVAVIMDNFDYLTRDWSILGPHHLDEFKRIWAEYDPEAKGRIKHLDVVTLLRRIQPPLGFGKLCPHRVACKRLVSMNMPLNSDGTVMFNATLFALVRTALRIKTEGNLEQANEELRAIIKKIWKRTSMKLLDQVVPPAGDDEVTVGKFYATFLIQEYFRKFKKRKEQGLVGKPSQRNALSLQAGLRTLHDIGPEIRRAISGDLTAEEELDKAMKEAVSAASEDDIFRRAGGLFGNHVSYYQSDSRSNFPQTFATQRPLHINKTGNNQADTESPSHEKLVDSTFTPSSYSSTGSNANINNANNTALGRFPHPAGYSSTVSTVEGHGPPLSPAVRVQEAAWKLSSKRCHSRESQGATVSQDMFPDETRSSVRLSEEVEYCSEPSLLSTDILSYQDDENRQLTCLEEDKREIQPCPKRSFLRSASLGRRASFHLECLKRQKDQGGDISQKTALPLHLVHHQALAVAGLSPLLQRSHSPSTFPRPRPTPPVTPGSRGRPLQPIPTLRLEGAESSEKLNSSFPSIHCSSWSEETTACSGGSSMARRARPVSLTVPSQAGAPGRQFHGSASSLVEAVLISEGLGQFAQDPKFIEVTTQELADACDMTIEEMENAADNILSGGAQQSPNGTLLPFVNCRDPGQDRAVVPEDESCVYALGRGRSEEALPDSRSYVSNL
Chain of Sodium-dependent serotonin transporter (P31645 whole entry): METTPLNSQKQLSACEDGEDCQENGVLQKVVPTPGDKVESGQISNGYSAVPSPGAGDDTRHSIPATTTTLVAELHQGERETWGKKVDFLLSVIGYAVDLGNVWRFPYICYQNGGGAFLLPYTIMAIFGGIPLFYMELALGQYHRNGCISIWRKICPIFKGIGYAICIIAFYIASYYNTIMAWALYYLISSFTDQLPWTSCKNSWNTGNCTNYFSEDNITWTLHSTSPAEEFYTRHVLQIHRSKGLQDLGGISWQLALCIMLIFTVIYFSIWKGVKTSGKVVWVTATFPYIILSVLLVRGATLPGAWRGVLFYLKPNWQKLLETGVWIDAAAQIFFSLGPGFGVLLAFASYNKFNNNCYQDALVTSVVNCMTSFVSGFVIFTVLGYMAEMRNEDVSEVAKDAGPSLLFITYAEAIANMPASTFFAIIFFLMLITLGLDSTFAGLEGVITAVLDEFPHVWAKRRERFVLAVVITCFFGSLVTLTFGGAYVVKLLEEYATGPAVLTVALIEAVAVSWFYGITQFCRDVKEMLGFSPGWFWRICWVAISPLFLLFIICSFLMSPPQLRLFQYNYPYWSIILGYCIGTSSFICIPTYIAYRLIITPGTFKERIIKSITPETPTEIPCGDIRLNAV

Molecule | AC50 [1] | AC50 ([2]; read-out: AC50) | AC50 (Histamine H1 receptor) | AC50 (Motilin receptor) | AC50 (Histamine H3 receptor) | AC50 [3] | AC50 [4] | AC50 [5] | AC50 [6] | AC50 [7] | AC50 [8] | AC50 [9] | AC50 ([2]; human, cellular components)
NS(=O)(=O)c1ccc(N2CCCCS2(=O)=O)cc1 | > 30 µM | > 30 µM | > 30 µM | > 30 µM | > 30 µM | > 30 µM | > 30 µM | > 30 µM | > 30 µM | – | – | – | –
COc1ccc(-n2nc(C(N)=O)c3c2C(=O)N(c2ccc(N4CCCCC4=O)cc2)CC3)cc1 [APIXABAN] | > 30 µM | > 30 µM | > 30 µM | > 30 µM | > 30 µM | > 30 µM | > 30 µM | > 30 µM | > 30 µM | > 30 µM | 26 µM | – | –
O=C(O)CCCC[C@@H]1SC[C@@H]2NC(=O)N[C@@H]21 [BIOTIN] | – | > 30 µM | > 10 µM | > 10 µM | – | > 10 µM | > 10 µM | > 10 µM | > 10 µM | – | > 10 µM | > 10 µM | –
CC(=O)OCC1=C(C(=O)O)N2C(=O)[C@@H](NC(=O)Cc3cccs3)[C@H]2SC1 [CEPHALOTHIN] | > 30 µM | > 30 µM | > 30 µM | > 30 µM | > 30 µM | > 30 µM | > 30 µM | > 30 µM | > 30 µM | > 30 µM | > 30 µM | – | –
CC1=C(C(=O)O)N2C(=O)[C@@H](NC(=O)[C@H](N)C3=CCC=CC3)[C@H]2SC1 [CEPHRADINE] | > 30 µM | > 30 µM | > 30 µM | > 30 µM | > 30 µM | > 30 µM | > 30 µM | > 30 µM | > 30 µM | – | > 30 µM | – | –
CCCCCCOC(=O)NC(=N)c1ccc(NCc2nc3cc(C(=O)N(CCC(=O)OCC)c4ccccn4)ccc3n2C)cc1 [DABIGATRAN ETEXILATE] | > 30 µM | – | > 30 µM | > 30 µM | > 30 µM | > 30 µM | > 30 µM | > 30 µM | 17 µM | > 30 µM | > 30 µM | – | –
CCN1C(=O)NC(c2ccccc2)C1=O (stereo unspecified) [ETHOTOIN] | > 30 µM | > 30 µM | > 30 µM | > 30 µM | > 30 µM | > 30 µM | 22 µM | > 30 µM | > 30 µM | > 30 µM | > 30 µM | – | –
CC1Cc2ccccc2N1NC(=O)c1ccc(Cl)c(S(N)(=O)=O)c1 (stereo unspecified) [INDAPAMIDE] | – | > 30 µM | – | > 10 µM | > 10 µM | – | > 30 µM | > 10 µM | > 30 µM | > 30 µM | > 30 µM | > 10 µM | –
CCC(=O)O[C@H](CC(=O)O)C[N+](C)(C)C [LEVOCARNITINE PROPIONATE] | > 30 µM | > 30 µM | > 30 µM | > 30 µM | > 30 µM | > 30 µM | > 30 µM | > 30 µM | > 30 µM | – | > 30 µM | – | –
O=C(O)c1nn(Cc2ccc(Cl)cc2Cl)c2ccccc12 [LONIDAMINE] | > 30 µM | > 30 µM | > 30 µM | > 30 µM | > 30 µM | > 30 µM | > 30 µM | > 30 µM | > 30 µM | > 30 µM | > 30 µM | – | –
CC(C)(C)NCC(O)COc1cccc2c1CC(O)C(O)C2 (stereo unspecified) [NADOLOL] | – | > 30 µM | – | > 10 µM | > 10 µM | – | > 10 µM | > 10 µM | > 10 µM | 7.7 µM | > 10 µM | > 10 µM | –
COC(=O)c1ccc2c(c1)NC(=O)/C2=C(\Nc1ccc(N(C)C(=O)CN2CCN(C)CC2)cc1)c1ccccc1 [NINTEDANIB] | > 30 µM | 9.1 µM | > 30 µM | > 30 µM | > 30 µM | > 30 µM | > 30 µM | > 30 µM | > 30 µM | > 30 µM | > 30 µM | – | –
CN1CCCN=C1/C=C/c1cccc(O)c1 [OXANTEL] | > 30 µM | 6.2 µM | – | > 30 µM | > 30 µM | > 30 µM | > 30 µM | > 30 µM | > 30 µM | > 30 µM | – | > 30 µM | –
CC(C(=O)O)c1ccc(C(=O)c2ccccc2)s1 (stereo unspecified) [TIAPROFENIC ACID] | > 10 µM | 9.26 µM | – | > 10 µM | > 10 µM | > 10 µM | 0.365 µM | > 10 µM | > 10 µM | > 30 µM | > 10 µM | > 10 µM | –
CCN(C(C)=O)c1cccc(-c2ccnc3c(C#N)cnn23)c1 [ZALEPLON] | – | > 30 µM | – | > 30 µM | > 10 µM | – | > 30 µM | > 10 µM | > 30 µM | > 30 µM | > 30 µM | > 10 µM | –
SITOSTEROLS | – | – | > 30 µM | > 30 µM | > 30 µM | > 30 µM | – | > 30 µM | > 30 µM | > 30 µM | > 30 µM | > 30 µM | > 30 µM
TEPRENONE | – | – | > 10 µM | > 10 µM | > 10 µM | > 10 µM | 16.1 µM | > 10 µM | > 30 µM | > 30 µM | – | > 10 µM | > 30 µM
